ChEMBL document CHEMBL4043238, “Discovery of N-substituted 7-azaindoles as Pan-PIM kinase inhibitors - Lead series identification - Part II” (Bioorg Med Chem Lett, 2017)
Converted amounts (≈) assume the structure as drawn.

Key:
[1] = target: T1, Serine/threonine-protein kinase pim-1 (Homo sapiens, UniProt P11309); assay: Inhibition of PIM1 (unknown origin) assessed as reduction in BAD phosphorylation at Ser112 residues by TR-FRET assay
[2] = target: Serine/threonine-protein kinase pim-2 (Homo sapiens, UniProt Q9P1W9); assay: Inhibition of PIM2 (unknown origin) assessed as reduction in BAD phosphorylation at Ser112 residues by TR-FRET assay
[3] = target: Serine/threonine-protein kinase pim-3 (Homo sapiens, UniProt Q86V86); assay: Inhibition of PIM3 (unknown origin) assessed as reduction in BAD phosphorylation at Ser112 residues by TR-FRET assay
[4] = tested on: KG-1; assay: Antiproliferative activity against human KG1 cells; format: functional, cell-based
[5] = Permeability from apical to basolateral side in human Caco2/TC7 cells at 5 uM; format: ADME, cell-based; conditions: Caco-2, read-out: permeability
[6] = target: Voltage-gated inwardly rectifying potassium channel KCNH2 (Homo sapiens, UniProt Q12809); assay: Inhibition of human ERG by patch clamp assay
[7] = tested on: Liver; assay: Stability in human liver microsomes; format: ADME, microsome
[8] = tested on: Liver; assay: Stability in rat liver microsomes; format: ADME, microsome
[9] = tested on: Liver; assay: Stability in mouse liver microsomes; format: ADME, microsome
[10] = target: T2, Cytochrome P450 3A4 (Homo sapiens, UniProt P08684); assay: Inhibition of CYP3A4 (unknown origin) using midazolam as substrate; format: ADME
[11] = target: T2, Cytochrome P450 3A4; assay: Inhibition of CYP3A4 (unknown origin) using testosterone as substrate; format: ADME
[12] = target: T1, Serine/threonine-protein kinase pim-1; assay: Inhibition of PIM1 in human KG1 cells assessed as reduction in BAD phosphorylation; format: cell-based
[13] = Clearance in human liver microsomes assessed as compound extraction at 5 uM; format: ADME, microsome; conditions: read-out: CLH
[14] = Thermodynamic solubility of the compound at pH 7.4; format: physicochemical; conditions: buffer, read-out: Therm_solubility
[15] = AUC (0 to infinity) in mouse at 10 mg/kg, po administered as single dose; format: ADME, organism-based; parameters: dose 10 mg/kg, route oral, time infinity; conditions: in vivo
[16] = Half life in mouse at 3 mg/kg, iv administered as single dose; format: ADME, organism-based; conditions: in vivo
[17] = Half life in mouse at 10 mg/kg, po administered as single dose; format: ADME, organism-based; conditions: in vivo
[18] = (§1) Oral bioavailability in mouse at 10 mg/kg administered as single dose; format: ADME, organism-based; conditions: in vivo
[19] = Clearance in mouse at 3 mg/kg, iv administered as single dose; format: ADME, organism-based; conditions: in vivo
[20] = Volume of distribution at steady state in mouse at 3 mg/kg, iv administered as single dose; format: ADME, organism-based; conditions: in vivo, read-out: Vdss
[21] = Cmax in mouse at 3 mg/kg, iv or 10 mg/kg, po administered as single dose; format: ADME, organism-based; conditions: in vivo
[22] = tested on: Mus musculus; assay: Clearance in mouse at 3 mg/kg, iv administered as single dose relative to hepatic blood flow; format: ADME, organism-based; conditions: in vivo
[23] = Inhibition of CYP450 (unknown origin); format: ADME; conditions: human
[24] = Induction of CYP450 (unknown origin); format: ADME; conditions: human
[25] = tested on: Mus musculus; assay: as §1; format: ADME, organism-based; conditions: in vivo

Row | Structure (SMILES) | IC50 [1] [nM] | IC50 [2] [nM] | IC50 [3] [nM] | other results
1 | Cn1cc(-c2c(Cl)c3c(Cl)cc(C(N)=O)nc3n2C2CCCNC2)cn1 (configuration not stated) | 1 | 16 | – | –
2 | CN1CCN(c2ccc(-c3cc4c(Cl)cc(C(N)=O)nc4n3C)cc2)CC1 | 250 | > 30000 | – | –
3 | NC(=O)c1cc(Cl)c2c(Cl)c(I)n(C3CCCC(N)C3)c2n1 (racemic) | 1 | 10 | 2 | –
4 | NC(=O)c1cc(Cl)c2c(Cl)c(I)n(CCC3CCNCC3)c2n1 | 3 | 148 | 17 | –
5 | CN1CCC(n2c(I)c(Cl)c3c(Cl)cc(C(N)=O)nc32)CC1 | 2 | 34 | 6 | –
6 | NC(=O)c1cc(Cl)c2c(Cl)c(C3CC3)n([C@@H]3CCCNC3)c2n1 | 4 | 22 | – | IC50 [4]: 822 nM; Papp A→B at 5 µM [5]: 3.6 ×10⁻⁶ cm/s; IC50 [6]: 1500 nM; Stability [7]: 3%; Stability [8]: 8%; Stability [9]: 11%; IC50 [10]: > 30000 nM; IC50 [11]: > 30000 nM
7 | NC(=O)c1cc(Cl)c2c(Cl)c(C3=CCOCC3)n(C3CCCNC3)c2n1 (configuration not stated) | 103 | 179 | – | –
8 | NC(=O)c1cc(Cl)c2c(Cl)c(I)n(C3CCC(O)CC3)c2n1 (configuration not stated) | 8 | 116 | 25 | –
9 | NC(=O)c1cc(Cl)c2c(Cl)c(I)n(C3CCNCC3)c2n1 | 2 | 28 | 4 | –
10 | CC(C)=Cc1c(Cl)c2c(Cl)cc(C(N)=O)nc2n1C1CCCNC1 (configuration not stated) | 4 | 24 | – | –
11 | NC(=O)c1cc(Cl)c2c(Cl)c(I)n(C3CN4CCC3CC4)c2n1 (racemic) | 6 | 99 | 27 | –
12 | NC(=O)c1cc(Cl)c2c(Cl)c(I)n(Cc3ccncc3)c2n1 | 720 | – | 5620 | –
13 | NC(=O)c1cc(Cl)c2c(Cl)c(I)n(C3CCCC(O)C3)c2n1 (racemic) | 8 | 89 | 28 | –
14 | NC(=O)c1cc(Cl)c2c(Cl)c(I)n(CC3CCNCC3)c2n1 | 4 | 99 | 12 | –
15 | NC(=O)c1cc(Cl)c2c(Cl)c(C3CCCO3)n(C3CCCNC3)c2n1 (configuration not stated) | 31 | 135 | – | –
16 | NC(=O)c1cc(Cl)c2c(Cl)c(I)n(C3CCNC(=O)C3)c2n1 (racemic) | 32 | 660 | 64 | –
17 | NC(=O)c1cc(Cl)c2c(Cl)c(C#CC3CC3)n(C3CCCNC3)c2n1 (racemic) | 0.7 | 6 | – | IC50 [4]: 167 nM; IC50 [12]: 75 nM; Papp A→B at 5 µM [5]: 3 ×10⁻⁶ cm/s; IC50 [6]: 1000 nM; hepatic extraction ratio at 5 µM [13]: 0.21; solubility thermodynamic [14]: 13 µM (≈ 4.9 µg/mL); AUC(0-inf) [15]: 2500 ng·h/mL; half-life [16]: 2.6 h; half-life [17]: 3.3 h; bioavailability [18]: 97%; clearance [19]: 65 mL/min/kg; Vd [20]: 11 L/kg; Cmax [21]: 958 ng/mL; CL [22]: > 75%
18 | CCN(CC)CCn1c(I)c(Cl)c2c(Cl)cc(C(N)=O)nc21 | 125 | 7410 | 480 | –

Second part, led by results:

Row | IC50 [1] [nM] | IC50 [2] [nM] | IC50 [3] [nM] | Structure (SMILES) | other results
19 | 37 | 1950 | – | Cc1c(-c2ccc(N3CCN(C)CC3)cc2)n(C)c2nc(C(N)=O)cc(Cl)c12 | –
20 | 31 | 640 | 69 | Cn1c(I)c(Cl)c2c(Cl)cc(C(N)=O)nc21 | –
21 | 67 | 25 | – | NC(=O)c1cc(Cl)c2c(Cl)c(C(F)(F)F)n(C3CCCNC3)c2n1 (configuration not stated) | –
22 | 250 | 4220 | 350 | NC(=O)c1cc(Cl)c2c(Cl)c(I)n(C3CNC3)c2n1 | –
23 | 1 | 6 | 3 | NC(=O)c1cc(Cl)c2c(Cl)c(I)n(C3CCC(N)CC3)c2n1 (configuration not stated) | –
24 | 1 | 6 | 2 | NC(=O)c1cc(Cl)c2c(Cl)c(I)n(C3CCCNC3)c2n1 (racemic) | IC50 [4]: 85 nM; IC50 [12]: 47 nM; Papp A→B at 5 µM [5]: 2.6 ×10⁻⁶ cm/s; hepatic extraction ratio at 5 µM [13]: 0.35; solubility thermodynamic [14]: 42 µM (≈ 18.4 µg/mL); AUC(0-inf) [15]: 15000 ng·h/mL; half-life [16]: 1.5 h; half-life [17]: 2.3 h; bioavailability [18]: 54%; clearance [19]: 6 mL/min/kg; Vd [20]: 0.55 L/kg; Cmax [21]: 3500 ng/mL
25 | 13 | 109 | – | NC(=O)c1cc(Cl)c2c(Cl)c(-c3ccccc3)n(C3CCCNC3)c2n1 (configuration not stated) | –
26 | 3 | 15 | – | CSc1c(Cl)c2c(Cl)cc(C(N)=O)nc2n1C1CCCNC1 (configuration not stated) | –
27 | 12 | 383 | 45 | NC(=O)c1cc(Cl)c2c(Cl)c(I)n(CC3CCCN3)c2n1 (racemic) | –
28 | 1 | 15 | 3 | NC(=O)c1cc(Cl)c2c(Cl)c(I)n(C3CCCNCC3)c2n1 (racemic) | –
29 | 1 | 23 | 1 | NC(=O)c1cc(Cl)c2c(Cl)c(I)n(CC3CCNC3)c2n1 (racemic) | –
30 | 8 | 57 | – | COC/C=C/c1c(Cl)c2c(Cl)cc(C(N)=O)nc2n1C1CCCNC1 (configuration not stated) | –
31 | 3 | 9 | – | NCC1CCC(n2c(I)c(Cl)c3c(Cl)cc(C(N)=O)nc32)CC1 (configuration not stated) | –
32 | 42 | 298 | – | COCC1CC1c1c(Cl)c2c(Cl)cc(C(N)=O)nc2n1C1CCCNC1 (configuration not stated) | –
33 | 1 | 13 | – | NC(=O)c1cc(Cl)c2c(Cl)c(C3CC3)n(C3CCCNC3)c2n1 (racemic) | IC50 [4]: 310 nM; IC50 [12]: 115 nM; Papp A→B at 5 µM [5]: 1.9 ×10⁻⁶ cm/s; IC50 [6]: 2900 nM; hepatic extraction ratio at 5 µM [13]: 0.02; solubility thermodynamic [14]: 0.4 µM (≈ 0.141 µg/mL); inhibition (INH) [23]: Not Active; Activity [24]: Not Active; AUC(0-inf) [15]: 13700 ng·h/mL; half-life [16]: 3.1 h; half-life [17]: 8.9 h; F [25]: 155%; clearance [19]: 18.3 mL/min/kg; Vd [20]: 4.6 L/kg; Cmax [21]: 292 ng/mL
